Data as given in ChEMBL document CHEMBL1201862, “PubChem BioAssay data set” (2004).
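Values below derive from 48-hour exposures of cells grown in 96-well plates, with endpoints linearly interpolated between the two concentrations bracketing the appropriate inhibition level. Here, GI50 denotes the concentration required for 50% inhibition of growth.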 Calls of active or inactive are those of the source. No stated cut-off is given here; in the data, active = GI50 up to about 1.1 µM and inactive = higher.

Legend:
Experiment in all cases: DTP human tumour cell line panel, 48 h
LOX IMVI = test system: LOX IMVI
SR = test system: SR
K562 = test system: K562
HCT-116 = test system: HCT-116
MOLT-4 = test system: MOLT-4
UACC-257 = test system: UACC-257
MDA-MB-435 = test system: MDA-MB-435
HOP-92 = test system: HOP-92
SNB-19 = test system: SNB-19
786-0 = test system: 786-0
MCF7 = test system: MCF7
HCC 2998 = test system: HCC 2998
NCI-H23 = test system: NCI-H23
ACHN = test system: ACHN
RXF 393 = test system: RXF 393
PC-3 = test system: PC-3
NCI-H522 = test system: NCI-H522
HOP-62 = test system: HOP-62
BT-549 = test system: BT-549
Malme-3M = test system: Malme-3M
UACC-62 = test system: UACC-62
SK-MEL-28 = test system: SK-MEL-28
NCI/ADR-RES = test system: NCI/ADR-RES
OVCAR-4 = test system: OVCAR-4
HL-60 = test system: HL-60
SN12C = test system: SN12C
SK-MEL-2 = test system: SK-MEL-2
T47D = test system: T47D
TK-10 = test system: TK-10
A549 = test system: A549
MDA-N = test system: MDA-N
IGROV-1 = test system: IGROV-1
SK-MEL-5 = test system: SK-MEL-5
MDA-MB-231 = test system: MDA-MB-231
OVCAR-5 = test system: OVCAR-5
RPMI-8226 = test system: RPMI-8226
EKVX = test system: EKVX
CAKI-1 = test system: CAKI-1
U-251 = test system: U-251
COLO 205 = test system: COLO 205
NCI-H226 = test system: NCI-H226
SF-268 = test system: SF-268
DU-145 = test system: DU-145
SF-295 = test system: SF-295
UO-31 = test system: UO-31
HT-29 = test system: HT-29
OVCAR-3 = test system: OVCAR-3
CCRF-CEM = test system: CCRF-CEM
OVCAR-8 = test system: OVCAR-8
HCT-15 = test system: HCT-15
SF-539 = test system: SF-539
SW-620 = test system: SW-620
SNB-75 = test system: SNB-75
KM12 = test system: KM12
Hs-578T = test system: Hs-578T
M14 = test system: M14
SK-OV-3 = test system: SK-OV-3
NCI-H460 = test system: NCI-H460

With `CCOC(=O)C(NCc1ccc2c(c1)OCO2)(NC(=O)c1ccccc1)C(F)(F)F` (stereo not given) as the compound, how does the GI50 (LOX IMVI) read?
Its GI50 is > 100 µM (inactive).

And the GI50 (SR)?
Its GI50 is 36 µM (inactive).

What about the GI50 (K562) of the same compound?
The GI50 was 44.4 µM (inactive).

And the GI50 (HCT-116)?
Its GI50 is 89.1 µM (inactive).

What about the GI50 (MOLT-4) of the same compound?
Its GI50 is 18 µM (inactive).

And the GI50 (UACC-257)?
Its GI50 is > 100 µM (inactive).

What about the GI50 (MDA-MB-435) of the same compound?
The GI50 was > 100 µM (inactive).

And the GI50 (HOP-92)?
The GI50 was 41.9 µM (inactive).

What about the GI50 (SNB-19) of the same compound?
Its GI50 is > 100 µM (inactive).

And the GI50 (786-0)?
The GI50 was > 100 µM (inactive).

And the GI50 (MCF7)?
The GI50 was 60.3 µM (inactive).

What about the GI50 (HCC 2998) of the same compound?
The GI50 was > 100 µM (inactive).

And the GI50 (NCI-H23)?
The GI50 was 62.2 µM (inactive).

What about the GI50 (ACHN) of the same compound?
The GI50 was > 100 µM (inactive).

What about the GI50 (RXF 393) of the same compound?
The GI50 was > 100 µM (inactive).

What about the GI50 (PC-3) of the same compound?
The GI50 was 65 µM (inactive).

What about the GI50 (NCI-H522) of the same compound?
The GI50 was 39.1 µM (inactive).

What about the GI50 (HOP-62) of the same compound?
The GI50 was > 100 µM (inactive).

What about the GI50 (BT-549) of the same compound?
Its GI50 is > 100 µM (inactive).

What about the GI50 (Malme-3M) of the same compound?
Its GI50 is > 100 µM (inactive).

And the GI50 (UACC-62)?
Its GI50 is > 100 µM (inactive).

And the GI50 (SK-MEL-28)?
Its GI50 is > 100 µM (inactive).

And the GI50 (NCI/ADR-RES)?
Its GI50 is 46.2 µM (inactive).

What about the GI50 (OVCAR-4) of the same compound?
The GI50 was 76.7 µM (inactive).

What about the GI50 (HL-60) of the same compound?
Its GI50 is 16.9 µM (inactive).

And the GI50 (SN12C)?
Its GI50 is > 100 µM (inactive).

What about the GI50 (SK-MEL-2) of the same compound?
Its GI50 is > 100 µM (inactive).

And the GI50 (T47D)?
Its GI50 is 38.3 µM (inactive).

And the GI50 (TK-10)?
The GI50 was > 100 µM (inactive).

What about the GI50 (A549) of the same compound?
Its GI50 is 71 µM (inactive).

What about the GI50 (MDA-N) of the same compound?
The GI50 was > 100 µM (inactive).

And the GI50 (IGROV-1)?
Its GI50 is > 100 µM (inactive).

And the GI50 (SK-MEL-5)?
The GI50 was > 100 µM (inactive).

And the GI50 (MDA-MB-231)?
Its GI50 is 64.4 µM (inactive).

What about the GI50 (OVCAR-5) of the same compound?
The GI50 was > 100 µM (inactive).

And the GI50 (RPMI-8226)?
The GI50 was 34.7 µM (inactive).

And the GI50 (EKVX)?
The GI50 was 86.1 µM (inactive).

And the GI50 (CAKI-1)?
Its GI50 is > 100 µM (inactive).

What about the GI50 (U-251) of the same compound?
Its GI50 is > 100 µM (inactive).

And the GI50 (COLO 205)?
Its GI50 is > 100 µM (inactive).

What about the GI50 (NCI-H226) of the same compound?
Its GI50 is > 100 µM (inactive).

What about the GI50 (SF-268) of the same compound?
Its GI50 is > 100 µM (inactive).

And the GI50 (DU-145)?
Its GI50 is > 100 µM (inactive).

What about the GI50 (SF-295) of the same compound?
The GI50 was > 100 µM (inactive).

What about the GI50 (UO-31) of the same compound?
Its GI50 is 51.3 µM (inactive).

And the GI50 (HT-29)?
The GI50 was > 100 µM (inactive).

And the GI50 (OVCAR-3)?
Its GI50 is > 100 µM (inactive).

And the GI50 (CCRF-CEM)?
Its GI50 is 19.5 µM (inactive).

What about the GI50 (OVCAR-8) of the same compound?
Its GI50 is > 100 µM (inactive).

And the GI50 (HCT-15)?
The GI50 was > 100 µM.

What about the GI50 (SF-539) of the same compound?
The GI50 was > 100 µM (inactive).

What about the GI50 (SW-620) of the same compound?
The GI50 was > 100 µM (inactive).

What about the GI50 (SNB-75) of the same compound?
The GI50 was > 100 µM (inactive).

What about the GI50 (KM12) of the same compound?
Its GI50 is 88.1 µM (inactive).

What about the GI50 (Hs-578T) of the same compound?
The GI50 was > 100 µM (inactive).

And the GI50 (M14)?
The GI50 was > 100 µM (inactive).

And the GI50 (SK-OV-3)?
The GI50 was > 100 µM (inactive).

What does the source list for `Clc1ccc(Cc2nc3ccccc3o2)cc1`?
GI50 (LOX IMVI): > 100 µM (inactive); GI50 (SR): 50.5 µM (inactive); GI50 (K562): 50.7 µM (inactive); GI50 (HCT-116): 66.7 µM (inactive); GI50 (MOLT-4): 38.5 µM (inactive); GI50 (UACC-257): 52.1 µM (inactive); GI50 (MDA-MB-435): > 100 µM (inactive); GI50 (HOP-92): > 100 µM (inactive); GI50 (SNB-19): > 100 µM (inactive); GI50 (786-0): 96.4 µM (inactive); GI50 (MCF7): 51.4 µM (inactive); GI50 (HCC 2998): 54 µM (inactive); GI50 (NCI-H460): > 100 µM (inactive); GI50 (NCI-H23): 56 µM (inactive); GI50 (ACHN): > 100 µM (inactive); GI50 (RXF 393): 25.3 µM (inactive); GI50 (PC-3): 55.8 µM (inactive); GI50 (NCI-H522): 33.8 µM (inactive); GI50 (HOP-62): > 100 µM (inactive); GI50 (BT-549): 35.8 µM (inactive); GI50 (Malme-3M): > 100 µM (inactive); GI50 (UACC-62): > 100 µM (inactive); GI50 (SK-MEL-28): > 100 µM (inactive); GI50 (NCI/ADR-RES): 42 µM (inactive); GI50 (OVCAR-4): 48.2 µM (inactive); GI50 (HL-60): 40.2 µM (inactive); GI50 (SN12C): > 100 µM (inactive); GI50 (SK-MEL-2): > 100 µM (inactive); GI50 (T47D): 27.2 µM (inactive); GI50 (TK-10): > 100 µM (inactive); GI50 (A549): 75 µM (inactive); GI50 (MDA-N): > 100 µM (inactive); GI50 (IGROV-1): > 100 µM (inactive); GI50 (SK-MEL-5): 31.3 µM (inactive); GI50 (MDA-MB-231): > 100 µM (inactive); GI50 (OVCAR-5): > 100 µM (inactive); GI50 (RPMI-8226): 27.6 µM (inactive); GI50 (EKVX): 40.1 µM (inactive); GI50 (CAKI-1): 54.8 µM (inactive); GI50 (U-251): 72.1 µM (inactive); GI50 (COLO 205): 74.6 µM (inactive); GI50 (NCI-H226): 40.4 µM (inactive); GI50 (SF-268): > 100 µM (inactive); GI50 (DU-145): > 100 µM (inactive); GI50 (SF-295): 57.8 µM (inactive); GI50 (UO-31): 67.6 µM (inactive); GI50 (HT-29): 40.2 µM (inactive); GI50 (OVCAR-3): 52.8 µM (inactive); GI50 (CCRF-CEM): 40.1 µM (inactive); GI50 (OVCAR-8): > 100 µM (inactive); GI50 (HCT-15): 39.3 µM; GI50 (SF-539): > 100 µM (inactive); GI50 (SW-620): > 100 µM (inactive); GI50 (SNB-75): 20 µM (inactive); GI50 (KM12): 69.8 µM (inactive); GI50 (Hs-578T): > 100 µM (inactive); GI50 (M14): > 100 µM (inactive); GI50 (SK-OV-3): > 100 µM (inactive)
